One molecule from patent US9526782B2, “Pharmaceutical compositions comprising inhibitors of zinc-ZIP8-MTF1 as active ingredients for preventing or treating a joint disease” (GWANGJU INSTITUTE OF SCIENCE AND TECHNOLOGY, priority 2014, dated 2016) can be followed below.

Assay [1] relates to matrix-degrading enzymes (MMP3, MMP9, MMP12, MMP13, and ADAMTS5). Nature of the assay: mRNA (qRT-PCR) and protein (Western blotting) levels of matrix-degrading enzymes in chondrocytes. Type of assay: cell-based, mouse. The procedure: Adenoviruses expressing mouse Zip8 (Ad-Zip8) and Mtf1 (Ad-Mtf1) were purchased from Vector Biolabs. Mouse articular chondrocytes were cultured for 2 days, infected with empty virus (Ad-C), Ad-Zip8, or Ad-Mtf1 for 2 hours at the indicated multiplicity of infection (MOI), and cultured for 24 hours, followed by further analyses.
(§1) Total RNA was extracted from primary cultured chondrocytes using the TRI reagent (Molecular Research Center Inc.). For the isolation of RNA from knee joints, cartilage tissues were scraped with a blade to remove cartilage, and RNA was isolated using the TRI reagent and Purelink RNA mini kit (Ambion). The RNA was reverse transcribed, and the resulting cDNA was amplified by PCR.
Transcript levels were quantified by qRT-PCR. siRNAs targeting Zip8 and Mtf1 were obtained from Dharmacon and transfected using Lipofectamine 2000. Non-targeting (scrambled) siRNA was used as a negative control. Chondrocytes were transfected by incubating for 6 hours with siRNA and Lipofectamine 2000 (Invitrogen), and infected with adenoviruses as described above. Therapeutic antibodies for obstruction of ZIP8 function were purchased from Santa Cruz Biotechnology and MyBioSource Company, and treated in chondrocytes for 24 hours.
Total cell lysates were prepared in lysis buffer (150 mM NaCl, 1% NP-40, 50 mM Tris, 5 mM NaF) and used to detect cellular proteins (ZIP8, MTF1, and ERK). Secreted proteins (MMP3, MMP13, and ADAMTS5) were detected after trichloroacetic acid (TCA) precipitation from 900 μl of serum-free conditioned medium. All lysis buffers contained a cocktail of protease inhibitors and phosphatase inhibitors (Roche).

The test system of a further assay is Mt1 and Mt2. The experiment in a line: mRNA and protein levels of MT1 and MT2 in chondrocytes. Type of assay: cell-based, mouse. Particulars: primary cultured chondrocytes.
Excerpt: as §1

The test system of a further assay is DMM-operated mice. Nature of the assay: DMM surgery-induced OA with Zn^2+ diets or intraperitoneal ZnCl2. Particulars: intraperitoneal, 5 mg/kg body weight twice a week, 6 weeks after surgery. Format: in vivo, mouse. The procedure: FIG. 6m represents that knee joint sections were prepared from sham- and DMM-operated mice that were fed low-Zn^2+ (<0.5 mg zinc/kg), adequate-Zn^2+ (30 mg zinc/kg), or high-Zn^2+ (300 mg zinc/kg) diets. Cartilage destruction was determined by safranin-O/hematoxylin staining and quantified (n=10).
FIG. 6n represents that sham- and DMM-operated mice were intraperitoneally injected with PBS or ZnCl2 (5 mg/kg body weight) twice a week until they are sacrificed 6 weeks after surgery. Knee joint sections were stained with safranin-O/hematoxylin and cartilage destruction was determined (n=10). […]
Human OA cartilage was frozen, sectioned at 10-μm thickness, and fixed in paraformaldehyde. Sulfate proteoglycan was detected with alcian blue staining. Human ZIP8 was detected by immunostaining. […] Sections were deparaffinized in xylene, hydrated with graded ethanol, and stained with safranin-O. Cartilage destruction was scored by two blinded observers using the OARSI grading system (Glasson et al., 2010). Synovitis was determined by safranin-O and hematoxylin staining, and synovial inflammation (grade 0-3) was scored as described previously (Yang et al., 2010). Osteophyte development was identified by safranin-O staining, and osteophyte maturity was quantified as described previously (Oh et al., 2012). […]

In another assay the target is T1, MTF1 (Mus musculus, UniProt Q07243).
T1 construct: endogenous in cells; host or cells: primary mouse articular chondrocytes
Nature of the assay: MTF1 activity reporter gene assay and immunostaining in chondrocytes. Format: cell-based. The method, then: The MTF1 reporter gene assay kit was obtained from SABiosciences. Chondrocytes were transfected for 6 hours with a metal response element (MRE) reporter construct and a constitutive Renilla luciferase construct using Lipofectamine 2000 (Invitrogen). Transfected cells were infected with Ad-Mtf1 or Ad-Zip8 for 2 hours or treated with metal ions. Cells were harvested 24 hours after treatment, and firefly luciferase and Renilla luciferase activities were measured using a Dual Luciferase Assay System (Promega). […] MTF1 was detected by immunofluorescence microscopy. Images were acquired using a fluorescence microscope, and at least 200 cells were examined in multiple fields per condition to quantify the percentage of nuclear MTF1-positive cells.
(Reporter assays use an easily measured gene product as a stand-in for the process of interest.)

Setting [2] is: Ad-Zip8 chondrocytes, TPEN 1 μM pre-incubated with 1 μM metal ion.

T1 sequence (Q07243 whole entry): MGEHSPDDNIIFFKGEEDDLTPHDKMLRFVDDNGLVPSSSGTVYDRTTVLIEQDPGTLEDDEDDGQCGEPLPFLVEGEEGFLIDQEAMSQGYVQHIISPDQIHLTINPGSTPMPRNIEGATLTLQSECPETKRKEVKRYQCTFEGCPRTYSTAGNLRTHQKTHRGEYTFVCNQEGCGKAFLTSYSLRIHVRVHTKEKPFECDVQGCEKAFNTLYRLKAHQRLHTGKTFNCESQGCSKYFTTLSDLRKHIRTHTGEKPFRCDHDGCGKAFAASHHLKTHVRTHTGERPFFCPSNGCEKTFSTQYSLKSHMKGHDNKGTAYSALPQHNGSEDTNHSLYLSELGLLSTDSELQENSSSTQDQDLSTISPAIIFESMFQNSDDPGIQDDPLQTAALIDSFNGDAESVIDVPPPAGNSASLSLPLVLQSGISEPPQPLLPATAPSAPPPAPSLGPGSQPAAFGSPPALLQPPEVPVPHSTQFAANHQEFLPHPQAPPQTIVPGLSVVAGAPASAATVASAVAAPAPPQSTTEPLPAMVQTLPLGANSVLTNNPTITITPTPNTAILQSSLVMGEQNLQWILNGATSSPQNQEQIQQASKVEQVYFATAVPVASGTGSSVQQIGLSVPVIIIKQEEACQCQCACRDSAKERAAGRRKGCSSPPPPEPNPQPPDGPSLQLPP

Regarding `[Cl-].[Cl-].[Zn+2]` [ZnCl2], in assay [1] (setting [2]), the “inhibitory effects of TPEN on the ZIP8-mediated expression of matrix-degrading enzymes, effect of pre-incubation of TPEN with the metal salt” value is given as “effectively abolished”. The “expression of matrix-degrading enzymes caused by the substance itself” value in assay [1] (chondrocytes, metal salts 100 μM (CdCl2 1 μM)) is “up-regulated”. The “expression of Mt1 and Mt2” value in the assay on Mt1 and Mt2 is “significantly increased”. Also, the DMM-induced cartilage destruction result in the assay with DMM-operated mice is “augmented”. Also, the “inhibitory effects of TPEN on MTF1 transcriptional activity, effect of pre-incubation of TPEN with the metal salt” value on MTF1 (setting [2]) is listed as “abolished”. In addition, the “nuclear localization of MTF1” value at MTF1 (chondrocytes) was “most effective”. Further, the “MTF1 transcriptional activity, effect of the substance itself” value at MTF1 (chondrocytes, reporter gene assay) is listed as “most effective”.
